From the supplement of paper PMC10307832

Assays:
Experiment in all cases: relative viability (nuclei count vs DMSO), 5 days (fraction); higher = more cells survive
[1] = tested on: NCI-H1975
How it was run: (§1)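 Five library-drug doses in √10 steps were combined with a fixed anchor-drug dose, or a single drug was given alone, by pin tool to lung cancer cell lines in 1536-well plates the day after seeding. Nuclei were stained and counted after 5 days. Relative viability is the nuclei count in treated wells over that in vehicle wells, taken as the median of duplicate plates.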

[2] = tested on: EPLC-272H
How it was run: as §1

[3] = tested on: NCI-H2126
How it was run: as §1

[4] = tested on: NCI-H1755
How it was run: as §1

[5] = tested on: HCC-78
How it was run: as §1

[6] = tested on: ChaGo-K-1
How it was run: as §1

[7] = tested on: NCI-H358
How it was run: as §1

[8] = tested on: NCI-H2023
How it was run: as §1

[9] = tested on: HCC-15
How it was run: as §1

[10] = tested on: HOP-62
How it was run: as §1

[11] = tested on: NCI-H3122
How it was run: as §1

[12] = tested on: UMC-11
How it was run: as §1

[13] = tested on: LXF-289
How it was run: as §1

[14] = tested on: EMC-BAC-2
How it was run: as §1

[15] = tested on: COR-L 105
How it was run: as §1

[16] = tested on: NCI-H322M
How it was run: as §1

[17] = tested on: NCI-H1915
How it was run: as §1

[18] = tested on: NCI-H2085
How it was run: as §1

[19] = tested on: NCI-H441
How it was run: as §1

[20] = tested on: NCI-H1666
How it was run: as §1

[21] = tested on: CAL-12T
How it was run: as §1

Structure (SMILES): CC(=O)O[C@@]12CO[C@@H]1C[C@H](O)[C@@]1(C)C(=O)[C@H](O)C3=C(C)[C@@H](OC(=O)[C@H](O)[C@@H](NC(=O)OC(C)(C)C)c4ccccc4)C[C@@](O)([C@@H](OC(=O)c4ccccc4)[C@H]21)C3(C)C [Docetaxel] + Nc1nc2[nH]cc(CCc3ccc(C(=O)N[C@@H](CCC(=O)O)C(=O)O)cc3)c2c(=O)[nH]1 [Pemetrexed] (partner 0.2 µM)
- relative viability ([1]; first compound 0.0002 µM): 0.286
- relative viability ([1]; first compound 0.000632 µM): 0.277
- relative viability ([1]; first compound 0.002 µM): 0.232
- relative viability ([1]; first compound 0.006325 µM): 0.18
- relative viability ([1]; first compound 0.02 µM): 0.137
- relative viability ([2]; first compound 0.0002 µM): 0.298
- relative viability ([2]; first compound 0.000632 µM): 0.187
- relative viability ([2]; first compound 0.002 µM): 0.139
- relative viability ([2]; first compound 0.006325 µM): 0.0965
- relative viability ([2]; first compound 0.02 µM): 0.111
- relative viability ([3]; first compound 0.0002 µM): 0.79
- relative viability ([3]; first compound 0.000632 µM): 0.661
- relative viability ([3]; first compound 0.002 µM): 0.456
- relative viability ([3]; first compound 0.006325 µM): 0.391
- relative viability ([4]; first compound 0.0002 µM): 0.545
- relative viability ([4]; first compound 0.000632 µM): 0.438
- relative viability ([4]; first compound 0.002 µM): 0.453
- relative viability ([4]; first compound 0.006325 µM): 0.367
- relative viability ([4]; first compound 0.02 µM): 0.332
- relative viability ([5]; first compound 0.0002 µM): 0.892
- relative viability ([5]; first compound 0.000632 µM): 0.868
- relative viability ([5]; first compound 0.002 µM): 0.88
- relative viability ([5]; first compound 0.006325 µM): 0.889
- relative viability ([5]; first compound 0.02 µM): 0.861
- relative viability ([6]; first compound 0.0002 µM): 0.269
- relative viability ([6]; first compound 0.000632 µM): 0.269
- relative viability ([6]; first compound 0.002 µM): 0.276
- relative viability ([6]; first compound 0.006325 µM): 0.268
- relative viability ([6]; first compound 0.02 µM): 0.181
- relative viability ([7]; first compound 0.0002 µM): 0.16
- relative viability ([7]; first compound 0.000632 µM): 0.172
- relative viability ([7]; first compound 0.002 µM): 0.164
- relative viability ([7]; first compound 0.006325 µM): 0.155
- relative viability ([7]; first compound 0.02 µM): 0.117
- relative viability ([8]; first compound 0.0002 µM): 0.208
- relative viability ([8]; first compound 0.000632 µM): 0.197
- relative viability ([8]; first compound 0.002 µM): 0.144
- relative viability ([8]; first compound 0.006325 µM): 0.124
- relative viability ([8]; first compound 0.02 µM): 0.0817
- relative viability ([9]; first compound 0.0002 µM): 0.235
- relative viability ([9]; first compound 0.000632 µM): 0.242
- relative viability ([9]; first compound 0.002 µM): 0.262
- relative viability ([9]; first compound 0.006325 µM): 0.273
- relative viability ([9]; first compound 0.02 µM): 0.181
- relative viability ([10]; first compound 0.0002 µM): 0.324
- relative viability ([10]; first compound 0.000632 µM): 0.362
- relative viability ([10]; first compound 0.002 µM): 0.304
- relative viability ([11]; first compound 0.0002 µM): 0.185
- relative viability ([11]; first compound 0.000632 µM): 0.196
- relative viability ([11]; first compound 0.002 µM): 0.193
- relative viability ([11]; first compound 0.006325 µM): 0.14
- relative viability ([11]; first compound 0.02 µM): 0.111
- relative viability ([12]; first compound 0.0002 µM): 0.717
- relative viability ([12]; first compound 0.000632 µM): 0.698
- relative viability ([12]; first compound 0.002 µM): 0.325
- relative viability ([12]; first compound 0.006325 µM): 0.256
- relative viability ([12]; first compound 0.02 µM): 0.195
- relative viability ([13]; first compound 0.0002 µM): 0.875
- relative viability ([13]; first compound 0.000632 µM): 0.8
- relative viability ([13]; first compound 0.002 µM): 0.363
- relative viability ([13]; first compound 0.006325 µM): 0.116
- relative viability ([13]; first compound 0.02 µM): 0.0871
- relative viability ([14]; first compound 0.0002 µM): 0.461
- relative viability ([14]; first compound 0.000632 µM): 0.462
- relative viability ([14]; first compound 0.002 µM): 0.464
- relative viability ([14]; first compound 0.006325 µM): 0.361
- relative viability ([14]; first compound 0.02 µM): 0.358
- relative viability ([15]; first compound 0.0002 µM): 1.06
- relative viability ([15]; first compound 0.000632 µM): 1.12
- relative viability ([15]; first compound 0.002 µM): 0.656
- relative viability ([15]; first compound 0.006325 µM): 0.492
- relative viability ([15]; first compound 0.02 µM): 0.388
- relative viability ([16]; first compound 0.0002 µM): 0.552
- relative viability ([16]; first compound 0.000632 µM): 0.602
- relative viability ([16]; first compound 0.002 µM): 0.689
- relative viability ([16]; first compound 0.006325 µM): 0.642
- relative viability ([16]; first compound 0.02 µM): 0.486
- relative viability ([17]; first compound 0.0002 µM): 0.562
- relative viability ([17]; first compound 0.000632 µM): 0.47
- relative viability ([17]; first compound 0.002 µM): 0.327
- relative viability ([17]; first compound 0.006325 µM): 0.152
- relative viability ([17]; first compound 0.02 µM): 0.108
- relative viability ([18]; first compound 0.0002 µM): 0.84
- relative viability ([18]; first compound 0.000632 µM): 0.902
- relative viability ([18]; first compound 0.002 µM): 0.552
- relative viability ([18]; first compound 0.006325 µM): 0.545
- relative viability ([18]; first compound 0.02 µM): 0.301
- relative viability ([19]; first compound 0.000632 µM): 0.253
- relative viability ([19]; first compound 0.002 µM): 0.206
- relative viability ([19]; first compound 0.006325 µM): 0.198
- relative viability ([20]; first compound 0.0002 µM): 0.946
- relative viability ([20]; first compound 0.000632 µM): 0.808
- relative viability ([20]; first compound 0.002 µM): 0.801
- relative viability ([20]; first compound 0.006325 µM): 0.858
- relative viability ([20]; first compound 0.02 µM): 0.542
- relative viability ([21]; first compound 0.0002 µM): 1.08
- relative viability ([21]; first compound 0.000632 µM): 0.83
- relative viability ([21]; first compound 0.002 µM): 0.241
- relative viability ([21]; first compound 0.006325 µM): 0.272
- relative viability ([21]; first compound 0.02 µM): 0.19
